{
  "source": "patent US7935853B2",
  "about": "“Micronized composition of a 2,4-disubstituted phenol derivative” (priority 2008, dated 2011)",
  "tested_on": "arthritis induced by injection of type II collagen in the mouse",
  "assay": "Model of arthritis induced by type II collagen in mice (CIA), hind paw plethysmometry",
  "assay_type": "in vivo",
  "conditions": "for Total hind paw volume (sum of both hind paws) / Oedema (difference in paw volume from basal values on day 21) in both hind paws: group mean n=10, listed as Group E; for percentage inhibition of oedema versus the control group: 10 mg/kg BID",
  "experimental": "The aim of the study was to determine the anti-inflammatory activity of the test item in a model of arthritis induced by injection of type II collagen in the mouse (CIA) and to compare the activity of two different formulations: micronized and non-micronized.\nInduction of arthritis was carried out by an initial exposure to type II bovine collagen by a subcutaneous injection at the base of the tail (induction phase).\nAfter a recovery time of 21 days, animals received a booster injection and approximately 4-5 weeks after the first injection there was an immune response with arthritis appearing in the extremities in the majority of the cases.\nFour experimental groups were used in the study with 10 animals in each group:\nGroup D: Positive control: FCA+vehicle B.I.D.\nGroup E: Micronized Test Item (Micro) 10 mg/kg B.I.D.\nGroup F: Non-Micronized test item 10 mg/kg B.I.D.\nGroup G: Reference item: Indomethacin 1 mg/kg Q.D.\nThe dose administered to groups E and F was 10 mg/kg.\nThe dose administered to group G was 1 mg/kg.\nThe doses of the test and reference items were expressed as mg/Kg of compound administered to each animal.\nThe test and reference items were administered in a solution of methylcellulose (0.25%: vehicle).\nThe positive control group received the vehicle (methylcellulose 0.25%).\nThe test and reference items, as well as the vehicle were administered orally at a dosing volume of 5 mls/kg.\nThe route of administration used was oral by use of an intragastric cannula.\nOn the day of start of the study each mouse was injected subcutaneously at the base of the tail with a first dose of 0.1 ml of an emulsion of bovine type II collagen (1 mg/mL) in Freund's Complete Adjuvant. Afterwards, on day 21 after this first injection, a second booster injection of type II collagen was administered to all animals. In this occasion the collagen suspension was done using Incomplete Freund's Adjuvant.\nCoinciding with the second booster injection on day 21 treatment with the test or reference items was started to the corresponding animals.\nTreatment with the test or reference items was carried out for 31 consecutive days (days 21-51 of the experimental period). Additionally, a recovery period was included at the end of the treatment period from day 52 to day 65 in order to evaluate the duration of any anti-inflammatory effect observed once dosing has been terminated.\nThe animals' hind paw volume was measured by plethysmometry one day before the 1st injection of collagen, again one day before the second (booster) collagen injection (basal values) and then daily after administration of test/reference item until the end of the study. During the recovery period at the end of the study, hind paw volume was measured three times per week.\nAdditionally the data was also represented graphically, depicting changes in total hind paw volume, as well as oedema (differences from basal (day 21) values).",
  "key": {"[1]": {"conditions": "day 22, oral treatment days 21-51"}, "[2]": {"conditions": "day 23, oral treatment days 21-51"}, "[3]": {"conditions": "day 26, oral treatment days 21-51"}, "[4]": {"conditions": "day 27, oral treatment days 21-51"}, "[5]": {"conditions": "day 29, oral treatment days 21-51"}, "[6]": {"conditions": "day 30, oral treatment days 21-51"}, "[7]": {"conditions": "day 33, oral treatment days 21-51"}, "[8]": {"conditions": "day 34, oral treatment days 21-51"}, "[9]": {"conditions": "day 35, oral treatment days 21-51"}, "[10]": {"conditions": "day 36, oral treatment days 21-51"}, "[11]": {"conditions": "day 37, oral treatment days 21-51"}, "[12]": {"conditions": "day 40, oral treatment days 21-51"}, "[13]": {"conditions": "day 41, oral treatment days 21-51"}, "[14]": {"conditions": "day 42, oral treatment days 21-51"}, "[15]": {"conditions": "day 43, oral treatment days 21-51"}, "[16]": {"conditions": "day 44, oral treatment days 21-51"}, "[17]": {"conditions": "day 47, oral treatment days 21-51"}, "[18]": {"conditions": "day 48, oral treatment days 21-51"}, "[19]": {"conditions": "day 49, oral treatment days 21-51"}, "[20]": {"conditions": "day 50, oral treatment days 21-51"}, "[21]": {"conditions": "day 51, oral treatment days 21-51"}, "[22]": {"conditions": "day 54, recovery period after treatment days 21-51"}, "[23]": {"conditions": "day 56, recovery period after treatment days 21-51"}, "[24]": {"conditions": "day 58, recovery period after treatment days 21-51"}, "[25]": {"conditions": "day 61, recovery period after treatment days 21-51"}, "[26]": {"conditions": "day 63, recovery period after treatment days 21-51"}, "[27]": {"conditions": "day 65, recovery period after treatment days 21-51"}},
  "data": [
    {"compound": "Oc1c(I)cc(I)cc1I", "note": "[Micronized, 2,4,6-triiodophenol]", "values": [
      {"measurement": "Total hind paw volume (sum of both hind paws)", "setting": "day 0, before collagen and treatment", "value": 0.169},
      {"measurement": "Total hind paw volume (sum of both hind paws)", "setting": "day 20, basal, before treatment", "value": 0.238},
      {"measurement": "Oedema (difference in paw volume from basal values on day 21) in both hind paws", "setting": "[1]", "value": 0.006},
      {"measurement": "Total hind paw volume (sum of both hind paws)", "setting": "[1]", "value": 0.244},
      {"measurement": "Oedema (difference in paw volume from basal values on day 21) in both hind paws", "setting": "[2]", "value": "−0.010"},
      {"measurement": "Total hind paw volume (sum of both hind paws)", "setting": "[2]", "value": 0.228},
      {"measurement": "Oedema (difference in paw volume from basal values on day 21) in both hind paws", "setting": "[3]", "value": 0.014},
      {"measurement": "Total hind paw volume (sum of both hind paws)", "setting": "[3]", "value": 0.252},
      {"measurement": "Oedema (difference in paw volume from basal values on day 21) in both hind paws", "setting": "[4]", "value": "−0.007"},
      {"measurement": "Total hind paw volume (sum of both hind paws)", "setting": "[4]", "value": 0.231},
      {"measurement": "Oedema (difference in paw volume from basal values on day 21) in both hind paws", "setting": "[5]", "value": "−0.003"},
      {"measurement": "Total hind paw volume (sum of both hind paws)", "setting": "[5]", "value": 0.234},
      {"measurement": "Oedema (difference in paw volume from basal values on day 21) in both hind paws", "setting": "[6]", "value": "−0.001"},
      {"measurement": "Total hind paw volume (sum of both hind paws)", "setting": "[6]", "value": 0.237},
      {"measurement": "Oedema (difference in paw volume from basal values on day 21) in both hind paws", "setting": "[7]", "value": "−0.007"},
      {"measurement": "Total hind paw volume (sum of both hind paws)", "setting": "[7]", "value": 0.231},
      {"measurement": "Oedema (difference in paw volume from basal values on day 21) in both hind paws", "setting": "[8]", "value": "−0.010"},
      {"measurement": "Total hind paw volume (sum of both hind paws)", "setting": "[8]", "value": 0.228},
      {"measurement": "Oedema (difference in paw volume from basal values on day 21) in both hind paws", "setting": "[9]", "value": 0.012},
      {"measurement": "Total hind paw volume (sum of both hind paws)", "setting": "[9]", "value": 0.250},
      {"measurement": "Oedema (difference in paw volume from basal values on day 21) in both hind paws", "setting": "[10]", "value": 0.006},
      {"measurement": "Total hind paw volume (sum of both hind paws)", "setting": "[10]", "value": 0.244},
      {"measurement": "Oedema (difference in paw volume from basal values on day 21) in both hind paws", "setting": "[11]", "value": 0.001},
      {"measurement": "Total hind paw volume (sum of both hind paws)", "setting": "[11]", "value": 0.239},
      {"measurement": "Oedema (difference in paw volume from basal values on day 21) in both hind paws", "setting": "[12]", "value": 0.026},
      {"measurement": "Total hind paw volume (sum of both hind paws)", "setting": "[12]", "value": 0.263},
      {"measurement": "Oedema (difference in paw volume from basal values on day 21) in both hind paws", "setting": "[13]", "value": 0.018},
      {"measurement": "Total hind paw volume (sum of both hind paws)", "setting": "[13]", "value": 0.256},
      {"measurement": "Oedema (difference in paw volume from basal values on day 21) in both hind paws", "setting": "[14]", "value": 0.003},
      {"measurement": "Total hind paw volume (sum of both hind paws)", "setting": "[14]", "value": 0.241},
      {"measurement": "Oedema (difference in paw volume from basal values on day 21) in both hind paws", "setting": "[15]", "value": 0.006},
      {"measurement": "Total hind paw volume (sum of both hind paws)", "setting": "[15]", "value": 0.244},
      {"measurement": "Oedema (difference in paw volume from basal values on day 21) in both hind paws", "setting": "[16]", "value": 0.001},
      {"measurement": "Total hind paw volume (sum of both hind paws)", "setting": "[16]", "value": 0.238},
      {"measurement": "Oedema (difference in paw volume from basal values on day 21) in both hind paws", "setting": "[17]", "value": 0.016},
      {"measurement": "Total hind paw volume (sum of both hind paws)", "setting": "[17]", "value": 0.254},
      {"measurement": "percentage inhibition of oedema versus the control group", "setting": "day 48, P<0.05", "value": "68.72±8.98", "unit": "%"},
      {"measurement": "Oedema (difference in paw volume from basal values on day 21) in both hind paws", "setting": "[18]", "value": 0.016},
      {"measurement": "Total hind paw volume (sum of both hind paws)", "setting": "[18]", "value": 0.254},
      {"measurement": "Oedema (difference in paw volume from basal values on day 21) in both hind paws", "setting": "[19]", "value": 0.023},
      {"measurement": "Total hind paw volume (sum of both hind paws)", "setting": "[19]", "value": 0.261},
      {"measurement": "percentage inhibition of oedema versus the control group", "setting": "day 50, P<0.05", "value": "70.56±9.88", "unit": "%"},
      {"measurement": "Oedema (difference in paw volume from basal values on day 21) in both hind paws", "setting": "[20]", "value": 0.017},
      {"measurement": "Total hind paw volume (sum of both hind paws)", "setting": "[20]", "value": 0.255},
      {"measurement": "percentage inhibition of oedema versus the control group", "setting": "day 51, highly significant", "value": "77.59±9.08", "unit": "%"},
      {"measurement": "Oedema (difference in paw volume from basal values on day 21) in both hind paws", "setting": "[21]", "value": 0.013},
      {"measurement": "Total hind paw volume (sum of both hind paws)", "setting": "[21]", "value": 0.251},
      {"measurement": "Oedema (difference in paw volume from basal values on day 21) in both hind paws", "setting": "[22]", "value": 0.032},
      {"measurement": "Total hind paw volume (sum of both hind paws)", "setting": "[22]", "value": 0.270},
      {"measurement": "Oedema (difference in paw volume from basal values on day 21) in both hind paws", "setting": "[23]", "value": 0.022},
      {"measurement": "Total hind paw volume (sum of both hind paws)", "setting": "[23]", "value": 0.259},
      {"measurement": "percentage inhibition of oedema versus the control group", "setting": "day 56, P<0.05", "value": "71.49±7.19", "unit": "%"},
      {"measurement": "Oedema (difference in paw volume from basal values on day 21) in both hind paws", "setting": "[24]", "value": 0.030},
      {"measurement": "Total hind paw volume (sum of both hind paws)", "setting": "[24]", "value": 0.268},
      {"measurement": "percentage inhibition of oedema versus the control group", "setting": "day 58, P<0.05", "value": "66.29±5.13", "unit": "%"},
      {"measurement": "Oedema (difference in paw volume from basal values on day 21) in both hind paws", "setting": "[25]", "value": 0.030},
      {"measurement": "Total hind paw volume (sum of both hind paws)", "setting": "[25]", "value": 0.27},
      {"measurement": "Oedema (difference in paw volume from basal values on day 21) in both hind paws", "setting": "[26]", "value": 0.026},
      {"measurement": "Total hind paw volume (sum of both hind paws)", "setting": "[26]", "value": 0.26},
      {"measurement": "Oedema (difference in paw volume from basal values on day 21) in both hind paws", "setting": "[27]", "value": 0.029},
      {"measurement": "Total hind paw volume (sum of both hind paws)", "setting": "[27]", "value": 0.27},
      {"measurement": "percentage inhibition of oedema versus the control group", "setting": "day 65, P<0.05", "value": "64.95±7.58", "unit": "%"}
    ]}
  ]
}
